Experimental data published in US20060058351A1, “Novel ligands that modulate LXR-type receptors and cosmetic/pharmaceutical applications thereof” (GALDERMA RESEARCH & DEVELOPMENT, S.N.C., priority 2003, published 2006).

Target: T1, LXRβ receptor (Gal-hLXRβ-DEF in HG5LN HeLa cells) (Homo sapiens, UniProt P55055)
T1 construct: stably transported with the Gal-hLXRβ-DEF plasmid; expressed in transfected cells; host or cells: HG5LN cells (HeLa stably transfected with the (17mer)5-bGlob-Luc reporter)
T1 sequence (P55055 222-460 limits assumed): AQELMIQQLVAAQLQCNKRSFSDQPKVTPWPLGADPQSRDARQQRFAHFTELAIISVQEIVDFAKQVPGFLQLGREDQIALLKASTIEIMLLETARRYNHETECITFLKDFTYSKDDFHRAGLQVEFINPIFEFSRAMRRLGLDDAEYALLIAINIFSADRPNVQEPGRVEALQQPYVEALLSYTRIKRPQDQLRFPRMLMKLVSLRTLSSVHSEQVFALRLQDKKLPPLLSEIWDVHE
Experiment: LXRβ transactivation test (luciferase reporter), determination of Kd apparent by crossover curves against a reference agonist
Format: cell-based
Conditions: for KdR/KdA: ratio of KdR to KdA
Experimental: This activity on the LXRβ receptors is measured in the transactivation test and quantified by means of the dissociation constant Kdapp (apparent), as described in Example 3.
The activity of the LXRβ receptors is measured in a transactivation test. Activation of the receptors with an agonist (activator) in HeLa cells leads to the expression of a reporter gene, luciferase, which, in the presence of a substrate, generates light. The activation of the receptors may thus be measured by quantifying the luminescence produced after incubating the cells in the presence of a reference agonist. The antagonist products displace the agonist from its site, thus preventing activation of the receptor: there will thus be a reduction in the light produced, which may be quantified. The agonist products are tested alone and their effect is measured by measuring the activation of luminescence after incubation.
Determination of the Kdapp:
In this study, a constant that is the affinity of the molecule for the receptor is determined. Since this value can fluctuate depending on the basal activity and the expression of the receptor, it is known as the Kd apparent (KdApp).
To determine this constant, “crossover curves” of the test product against a reference agonist are produced in a 96-well plate: […] of the test product plus a concentration 0 (in the rows) and 7 concentrations of the agonist plus a 0 concentration (in the columns). This is 88 measurement points for one product and one receptor. The remaining 8 wells are used for the 100% control (total agonist) and 0% control (DMSO).
These crossover curves make it possible to determine the AC50 values (concentration at which 50% activation is observed) of the reference ligand at various concentrations of the test product. These AC50 values are used to calculate the Schild regression by plotting a straight line corresponding to the Schild equation (“quantitation in receptor pharmacology,” Terry P. Kenakin, Receptors and Channels, 2001, 7, 371-385).
In the case of an antagonist, an IC50 value (concentration inhibiting 50% of the activity) is calculated by plotting the curve of the product at the concentration of the reference ligand giving 80% activation.
The cell lines used are HG5LN cells, HeLa cells stably transfected with the (17mer)5-bGlob-Luc reporter and also stably […] with the Gal-hLXRβ-DEF plasmid. These cells are inoculated into 96-well plates at a rate of 10 000 cells per well in 100 μl of DMEM medium free of phenol red and supplemented with 10% defatted calf serum. The plates are then incubated at 37° C. and 7% CO2 for 4 hours.
The various dilutions of the test products, of the reference ligand and of the 100% control (N-(2,2,2-trifluoroethyl)-N-[4-(trifluorohydroxy-trifluoromethylethyl)phenyl]benzenesulfonamide) and of the 0% control (0.2% dimethyl sulfoxide) are added at a rate of 5 μl per well. The plates are then incubated for 18 hours at 37° C. and 7% CO2.
The culture medium is removed by turning over and 100 μl of a 1:1 PBS/luciferine mixture are added to each well. After 5 minutes, the plates are read using a luminescence detector.

[1] = KdA, Affinity for the LXRβ receptor, HG5LN HeLa cells, Gal-hLXRβ-DEF, luciferase
[2] = KdApp, apparent dissociation constant, Schild regression, LXRβ receptor
[3] = KdR, Affinity for the LXRβ receptor, HG5LN HeLa cells, Gal-hLXRβ-DEF, luciferase

CCCC(=O)C1(c2ccccc2)CCN(C(=O)CNC(=O)c2ccc(C3CCCCC3)cc2)CC1 [Compound 54, N-[2-(4-butyryl-4-phenylpiperidin-1-yl)-2-oxoethyl]-4-cyclohexylbenzamide]
Kd [1]: 0.5 µM
Kd [2]: 2 µM
Kd [3]: 2 µM
KdR/KdA: 4

CCCC(=O)C1(c2ccccc2)CCN(C(=O)C(C)(C)Oc2ccccc2Cl)CC1 [Compound 47, 1-{1-[2-(2-chlorophenoxy)-2-methylpropionyl]4-phenylpiperidin-4-yl}butan-1-one]
Kd [1]: 20 µM
Kd [2]: 2 µM
Kd [3]: 2 µM
KdR/KdA: 0.1

CC(=O)C1(c2ccccc2)CCN(C(=O)CNC(=O)c2ccc(C3CCCCC3)cc2)CC1 [Compound 18, N-[2-(4-acetyl-4-phenylpiperidin-1-yl)-2-oxoethyl]-4-cyclohexylbenzamide]
Kd [1]: 0.5 µM
Kd [2]: 2 µM
Kd [3]: 2 µM
KdR/KdA: 4
